Patent US4588692A, “Antibiotic compounds, process for the preparation and pharmaceutical compositions thereof, methods of treatment therewith and Staphylococcus bacteria” (priority 1979, dated 1986)

Test system: S. epidermidis NCIB 11536
Assay: Antibiotic disc sensitivities of the producer strain
Type: cell-based
Settings: for Sensitive to: Amount of antibiotic/disc: strain sensitive at this disc content

| Compound | Novobiocin sensitivity (5 μg disc) | Sensitive to: Amount of antibiotic/disc |
| --- | --- | --- |
| CO[C@@H]1[C@@H](OC(N)=O)[C@@H](O)[C@H](Oc2ccc3c(O)c(NC(=O)c4ccc(O)c(CC=C(C)C)c4)c(=O)oc3c2C)OC1(C)C [novobiocin] | sensitive |  |
| CC1(C)S[C@@H]2[C@H](NC(=O)Cc3ccccc3)C(=O)N2[C@H]1C(=O)O [penicillin G] |  | 1 unit |
| gentamycin |  | 10 µg |
